{"source": "patent US9278982B2", "about": "“Targeting human thymidylate kinase induces DNA repair toxicity in malignant tumor cells” (NATIONAL YANG-MING UNIVERSITY, priority 2010, dated 2016)", "key": {"[1]": {"biological_target": "T1, thymidine kinase 1 (TK1) (Homo sapiens, UniProt P04183)", "T1 construct": "made in house; host or cells: E. coli JM109 (pGEX-3X-hTK1)", "T1 sequence (P04183 whole entry)": "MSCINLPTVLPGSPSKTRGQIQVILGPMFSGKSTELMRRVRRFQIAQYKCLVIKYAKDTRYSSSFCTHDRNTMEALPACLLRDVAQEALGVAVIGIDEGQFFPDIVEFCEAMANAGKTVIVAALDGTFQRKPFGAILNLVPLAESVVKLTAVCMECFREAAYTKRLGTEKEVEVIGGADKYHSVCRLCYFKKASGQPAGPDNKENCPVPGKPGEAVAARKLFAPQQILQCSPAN", "experiment": "Luciferase-coupled TK assay", "type": "biochemical", "settings": "GST-hTK1 protein (5 μg), 10 min preincubation", "experimental": "FIG. 12. Identification of a novel hTMPK inhibitor. (A) A screen of TMPK inhibitor by luciferase-coupled assay. (B) The chemical structures of YMU1 (compound 21) and related molecules. (C) Effect of YMU1 and derivative compounds on hTMPK inhibition using purified hTMPK protein (0.5 μg) with 10 min preincubation prior to reaction using luciferase-coupled TMPK analysis. (D) Effect of YMU1 on activity of purified TMPK (0.5 μg) and GST-hTK1 protein (5 μg) with 10 min preincubation prior to reaction. Data represent mean±s.d. (n=4) (E) Molecular models of the TMPK-YMU1 complex. Left panel: TMPK/ATP/Mg+2; right panel: TMPK/YMU1. The TMPK is represented in surface electrostatic potential (upper) and structural ribbon (lower). ATP and YMU1 are shown in green and blue stick, respectively, with colored atom (O, red; S, yellow; P, orange). […]\nThe TK reaction was started by adding purified hTMPK in 50 μl of TK assay buffer (50 mM Tris-HCl, pH 7.5, 1 mM CHAPS, 3 mg/ml BSA, 2.5 mM MgCl2, 50 μM ATP and 100 μM thymidine) in 96 wells plate at 25° C. for 10 min and terminated by adding 200 μl of thymidine (1.25 mM), followed by transferring 10 μl of reaction solution to a white 96-wellplate containing 90 μl of luciferase assay buffer (50 mM Glycine, 0.5 mM EDTA and 5 mM EDTA, pH 7.0, 0.1 μg of luciferase, 50 μM luciferin and 0.1% BSA). The luminescence was measured with a luminescence counter (Packard)."}, "[2]": {"test_system": "H184B5F5/M10, MCF-10A, MCF-7 and HCT-116 p53−/− cells", "method": "(B) H184B5F5/M10 cells were seeded onto 100 mm-dish at 5,000 cells/dish. MCF-10A, MCF-7 and HCT-116 p53^−/− cells were seeded onto 6 well plate at 600 cells/well. Following overnight culture, cells were treated with various concentration of YMU1 or FdUrd thrice a week. After 14 days colonies were fixed, stained by crystal violet.\nWe also compared the effect of YMU1 and FdUrd on cell viability of non-tumorigenic mammary cycling cells, H184B5F5/M10 and MCF-10A and tumor lines, MCF-7 and HCT-116 p53^−/− cells.\nAfter 14 days, colonies were fixed and stained by crystal violet and counted."}, "[3]": {"test_system": "HCT-116 p53−/− cells", "experiment": "In vivo xenograft model, sensitization to low-dose doxorubicin", "design": "species or system Balb/c nude mice", "experimental": "FIG. 16. In vitro and in vivo effect of YMU1 on doxorubicin sensitization. (A) A panel of cell lines were pre-treated with vehicle, YMU1 (compound 21), D6 (ethyl 4-(2-chloroacetyl)piperazine-1-carboxylate) or D7 (compound 28) for 3 days and were exposed to different concentration of doxorubicin for 4 h. […] The enhancement (fold) of doxorubicin sensitivity in each cell line was calculated. Data represent mean±s.d., n=3; each experiment was quadruplex. Inset indicates the IC50 value of doxorubicin in various cell lines. […] Following overnight culture, cells were refreshed with growth medium. After 14 days of culture, colonies were fixed, stained by crystal violet and counted. (C) HCT-116 p53^−/− cells were subcutaneously implanted in the right flank of Balb/c nude mice (each experimental group n=8). Arrow indicated the time of stopping drug treatment. The tumor volume was estimated as described in Methods of the Invention section. (D) After 2 weeks recovered from treatment, mice were sacrificed for tumor weight measurement. Data represent mean±s.e.m; **, P<0.01 by a two-tailed Student's t-test. (E) Ki 67 proliferation marker staining of tumor shown in left panel. Scale bar, 50 μm. (F) Model of doxorubicin sensitization by YMU1 in malignant cancer cells. […]\nWe also used an in vivo xenograft model to examine the effect of YMU1 as an adjuvant on sensitization to low-dose doxorubicin treatment. […] Two weeks after the last injections were administered, mice were sacrificed and tumor weights measured. […]\nFemale BALB/c AnN.Cg-Foxnl^nu/Crl Nurl mice 6-8 weeks of age (National Laboratory Animal Center, Taiwan) were used for the tumor xenograft model. […] The tumor size was measured every day after initiated drug treatment with an electronic caliper. […]\nMonoclonal Ki 67 antibody (B56) was purchased from BD PharMingen. Paraffin-embedded tumor sections (5 μm) were incubated with the primary antibody, detected with a LSAB™ kit (DakoCytomation) according to the manufacturer's instructions and counterstained with hematoxylin."}, "[4]": {"experiment": "In vivo toxicity of YMU1", "design": "species or system Balb/c mice"}}}
{"smiles": "CCOC(=O)N1CCN(C(=O)Cn2sc3nc(C)cc(C)c3c2=O)CC1", "note": "[compound 21, Ethyl 4-(2-(4,6-dimethyl-3-oxoisothiazolo[5,4-b]pyridin-2(3H)-yl)acetyl) piperazine-1-carboxylate]", "values": [{"measurement": "inhibitory effect on activity of purified thymidine kinase 1 (TK1)", "setting": "[1]", "value": "without inhibitory effect"}, {"measurement": "death of cells in colony assay", "setting": "[2]", "value": "did not"}, {"measurement": "growth of tumors, YMU1 combined with doxorubicin", "setting": "[3]; YMU1 15 mg/kg thrice a week + doxorubicin 1.25 mg/kg twice a week, i.p., 4 weeks", "value": "much slower"}, {"measurement": "tumor proliferation index (Ki 67 immunostaining), YMU1 combined with doxorubicin", "setting": "[3]; combinatory treatment of YMU1 and doxorubicin", "value": "clearly reduced"}, {"measurement": "average tumor size relative to control mice, YMU1 combined with doxorubicin", "setting": "[3]; two weeks after the last injections, YMU1 15 mg/kg thrice a week + doxorubicin 1.25 mg/kg twice a week, i.p.", "value": 25, "unit": "%"}, {"measurement": "Body weight", "setting": "[4]; Pre-treat, n = 4, Mean ± SEM", "value": "19.93 ± 1.63", "unit": "g"}, {"measurement": "Clinical observations", "setting": "[4]; Treatment group n = 4, YMU1 4 weeks", "value": "Nil"}, {"measurement": "Body weight", "setting": "[4]; Week -2, n = 4, Mean ± SEM", "value": "20.88 ± 1.07", "unit": "g"}, {"measurement": "Body weight", "setting": "[4]; Week-1, n = 4, Mean ± SEM", "value": "20.48 ± 1.43", "unit": "g"}, {"measurement": "Body weight", "setting": "[4]; Week-3, n = 4, Mean ± SEM", "value": "21.25 ± 1.13", "unit": "g"}, {"measurement": "Body weight", "setting": "[4]; Week-4, n = 4, Mean ± SEM", "value": "21.30 ± 0.96", "unit": "g"}, {"measurement": "mouse body weight", "setting": "[4]; YMU1 4 weeks, 2-fold higher dose regimen than in the tumor xenograft study", "value": "did not alter mouse body weight"}, {"measurement": "toxic effect in normal mice", "setting": "[4]; YMU1 on its own, 4 weeks", "value": "produces no toxic effect"}, {"measurement": "Blood Chemistry, Alanine Aminotransferase", "setting": "[4]; n = 4, Mean ± SEM", "value": "32.00 ± 2.45", "unit": "U/L"}, {"measurement": "Blood Chemistry, Alkaline Phosphatase", "setting": "[4]; n = 4, Mean ± SEM", "value": "389.25 ± 20.79", "unit": "U/L"}, {"measurement": "Blood Chemistry, Aspartate Aminotransferase", "setting": "[4]; n = 4, Mean ± SEM", "value": "62.50 ± 5.26", "unit": "U/L"}, {"measurement": "Blood Chemistry, Blood Urea Nitrogen", "setting": "[4]; n = 4, Mean ± SEM", "value": "19.08 ± 3.25", "unit": "mg/dL"}, {"measurement": "Blood Chemistry, Creatinine", "setting": "[4]; n = 4, Mean ± SEM", "value": "0.10 ± 0.00", "unit": "mg/dL"}, {"measurement": "Blood Chemistry, Total protein", "setting": "[4]; n = 4, Mean ± SEM", "value": "5.48 ± 0.25", "unit": "g/dL"}, {"measurement": "Hematology, Hb", "setting": "[4]; n = 4, Mean ± SEM", "value": "16.25 ± 0.41", "unit": "g/dl"}, {"measurement": "Hematology, PCV", "setting": "[4]; n = 4, Mean ± SEM", "value": "53.48 ± 2.50", "unit": "%"}, {"measurement": "Blood Chemistry, Glucose", "setting": "[4]; n = 4, Mean ± SEM, *P < 0.05", "value": "136.25 ± 14.31* mg/dl"}]}
